{"source": "patent US12213953B2", "about": "“Extended release midodrine hydrochloride compositions and methods of use” (XENAMED CORP., priority 2017, dated 2025)", "origin": "cited, not measured here", "key": {"[1]": {"details": "high water solubility and high permeability"}, "[2]": {"details": "oral 10 mg immediate release tablet"}}, "note": "Counter-ions that a name gives are not always drawn."}
{"smiles": "COc1ccc(OC)c(C(O)CNC(=O)CN)c1", "note": "(racemic) [midodrine HCl, (±)-2-amino-N-[2-(2,5-dimethoxyphenyl)-2-hydroxyethyl]acetamide monohydrochloride]", "values": [{"measurement": "BCS classification", "setting": "[1]", "value": "BCS Class I"}]}
{"smiles": "COc1ccc(OC)c(C(O)CN)c1", "note": "(centres unmarked) [desglymidodrine]", "values": [{"measurement": "effect of food on bioavailability of desglymidodrine", "setting": "in vivo", "value": "not affected by food"}, {"measurement": "first peak blood concentration of desglymidodrine", "setting": "[2]", "value": "about 10 ng/mL"}]}
{"smiles": "COc1ccc(OC)c(C(O)CNC(=O)CN)c1", "note": "(centres unmarked) [midodrine]", "values": [{"measurement": "half-life of midodrine", "setting": "[2]", "value": "approximately 25 minutes"}, {"measurement": "time to peak plasma levels of midodrine", "setting": "[2]", "value": "about 30 minutes"}]}
